# Patent US8227240B2, “Systems for screening pharmaceutical chemicals” (The Washington University, priority 2001, dated 2012)
# What was measured:
# cardiac fibroblasts = assay: Mechanical tests of tissue model rings cultured with MMP inhibitor; format: cell-based; settings: 50 μM GM6001 for 6 days
# Experimental: The tissue models made using cardiac fibroblasts are incubated with 50 .μM GM6001 for 6 days. The tissue culture medium is replenished every other day with fresh medium containing GM6001. The tissue model rings were subjected to mechanical tests as described above.
# MMPs = settings: purified system; cited from earlier work
# animals = settings: in vivo; cited from earlier work
smiles,measurement,setting,value
"CNC(=O)[C@H](Cc1c[nH]c2ccccc12)NC(=O)[C@@H](CC(=O)NO)CC(C)C [GM6001, N-[(2R)-2-(Hydroxamid-ocarbonylmethyl)-4-methylpentanoyl]-L-tryptophan methylamide]",mechanical properties of tissue model rings compared to controls,cardiac fibroblasts,significant reduction
same,Ki values for different MMPs,MMPs,around nmol/l
same,concentration of inhibitor at which effects in animals can be observed,animals,sub mmol/l
